Assay results taken from patent publication US10750743B2, “Pyridazinone herbicides” (E.I. DU PONT DE NEMOURS AND COMPANY, priority 2015, dated 2020).

How the values were obtained:
Type in all cases: in vivo
[1] = test system: blackgrass (Alopecurus myosuroides); assay: Test A postemergence application, visual injury rating; conditions: 0 to 100 scale, 0 no effect, 100 complete control
Text: (§1) Seeds of plant species selected from barnyardgrass (Echinochloa crus-galli), kochia (Kochia scoparia), ragweed (common ragweed, Ambrosia elatior), ryegrass, It. (Italian ryegrass, Lolium multiflorum), foxtail, giant (giant foxtail, Setaria faberii), and pigweed (Amaranthus retroflexus), were planted into a blend of loam soil and sand and treated preemergence with a directed soil spray using test chemicals formulated in a non-phytotoxic solvent mixture which included a surfactant.
(§2) At the same time, plants selected from these weed species and also wheat (Triticum aestivum), corn (Zea mays), blackgrass (Alopecurus myosuroides), and galium (catchweed bedstraw, Galium aparine), were planted in pots containing the same blend of loam soil and sand and treated with postemergence applications of test chemicals formulated in the same manner Plants ranged in height from 2 to 10 cm and were in the one- to two-leaf stage for the postemergence treatment. Treated plants and untreated controls were maintained in a greenhouse for approximately 10 d, after which time all treated plants were compared to untreated controls and visually evaluated for injury. Plant response ratings, summarized in Table A, are based on a 0 to 100 scale where 0 is no effect and 100 is complete control. A dash (-) response means no test result.

[2] = test system: galium (catchweed bedstraw, Galium aparine); assay: as above; conditions: 0 to 100 scale, 0 no effect, 100 complete control
Text: as §1, §2

corn (Zea mays) = assay: as above; conditions: 0 to 100 scale, 0 no effect, 100 complete control
Text: as §1, §2

[3] = test system: barnyardgrass (Echinochloa crus-galli); assay: as above; conditions: 0 to 100 scale, 0 no effect, 100 complete control
Text: as §1, §2

kochia (Kochia scoparia) [4] = assay: as above; conditions: 0 to 100 scale, 0 no effect, 100 complete control
Text: as §1, §2

[5] = test system: wheat (Triticum aestivum); assay: as above; conditions: 0 to 100 scale, 0 no effect, 100 complete control
Text: as §1, §2

[6] = test system: foxtail, giant (giant foxtail, Setaria faberii); assay: as above; conditions: 0 to 100 scale, 0 no effect, 100 complete control
Text: as §1, §2

[7] = test system: pigweed (Amaranthus retroflexus); assay: as above; conditions: 0 to 100 scale, 0 no effect, 100 complete control
Text: as §1, §2

[8] = test system: ryegrass, It. (Italian ryegrass, Lolium multiflorum); assay: as above; conditions: 0 to 100 scale, 0 no effect, 100 complete control
Text: as §1, §2

[9] = test system: ragweed (common ragweed, Ambrosia elatior); assay: as above; conditions: 0 to 100 scale, 0 no effect, 100 complete control
Text: as §1, §2

[10] = test system: barnyardgrass (Echinochloa crus-galli); assay: Test A preemergence, directed soil spray, visual injury rating; conditions: 0 is no effect, 100 is complete control
Text: as §1, §2

kochia (Kochia scoparia) [11] = assay: as above; conditions: 0 is no effect, 100 is complete control
Text: as §1, §2

[12] = test system: foxtail, giant (giant foxtail, Setaria faberii); assay: as above; conditions: 0 is no effect, 100 is complete control
Text: as §1, §2

[13] = test system: pigweed (Amaranthus retroflexus); assay: as above; conditions: 0 is no effect, 100 is complete control
Text: as §1, §2

[14] = test system: ryegrass, It. (Italian ryegrass, Lolium multiflorum); assay: as above; conditions: 0 is no effect, 100 is complete control
Text: as §1, §2

[15] = test system: ragweed (common ragweed, Ambrosia elatior); assay: as above; conditions: 0 is no effect, 100 is complete control
Text: as §1, §2

| SMILES | Blackgrass plant response rating ([1]; 125 g ai/ha) | Blackgrass plant response rating ([1]; 500 g ai/ha) | Galium plant response rating ([2]; 125 g ai/ha) | Galium plant response rating ([2]; 500 g ai/ha) | Corn plant response rating (corn (Zea mays); 125 g ai/ha) | Corn plant response rating (corn (Zea mays); 500 g ai/ha) | Barnyardgrass plant response rating ([3]; 125 g ai/ha) | Barnyardgrass plant response rating ([3]; 500 g ai/ha) | Kochia plant response rating (kochia (Kochia scoparia) [4]; 125 g ai/ha) | Kochia plant response rating (kochia (Kochia scoparia) [4]; 500 g ai/ha) | Wheat plant response rating ([5]; 125 g ai/ha) | Wheat plant response rating ([5]; 500 g ai/ha) | Foxtail, Giant plant response rating ([6]; 125 g ai/ha) | Foxtail, Giant plant response rating ([6]; 500 g ai/ha) | Pigweed plant response rating ([7]; 125 g ai/ha) | Pigweed plant response rating ([7]; 500 g ai/ha) | Ryegrass, It. plant response rating ([8]; 125 g ai/ha) | Ryegrass, It. plant response rating ([8]; 500 g ai/ha) | Ragweed plant response rating ([9]; 125 g ai/ha) | Ragweed plant response rating ([9]; 500 g ai/ha) | further results |
| --- | --- | --- | --- | --- | --- | --- | --- | --- | --- | --- | --- | --- | --- | --- | --- | --- | --- | --- | --- | --- | --- |
| Cc1cnc2sc(C)c(-c3c(OC(=O)C4CC4)c(C)nn(C)c3=O)c2c1 [Compound 9] | 0 | 20 | 50 | 60 | 0 | 0 | 0 | 20 | 40 | 50 | 0 | 0 | 0 | 40 | 50 | 80 | 30 | 60 | 10 | 30 | Plant response rating (0 to 100 scale), Barnyardgrass ([10]; 125 g ai/ha): 0; Plant response rating (0 to 100 scale), Barnyardgrass ([10]; 500 g ai/ha): 0; Plant response rating (0 to 100 scale), Kochia (kochia (Kochia scoparia) [11]; 125 g ai/ha): 0; Plant response rating (0 to 100 scale), Kochia (kochia (Kochia scoparia) [11]; 500 g ai/ha): 30; Plant response rating (0 to 100 scale), Foxtail, Giant ([12]; 125 g ai/ha): 0; Plant response rating (0 to 100 scale), Foxtail, Giant ([12]; 500 g ai/ha): 40; Plant response rating (0 to 100 scale), Pigweed ([13]; 125 g ai/ha): 0; Plant response rating (0 to 100 scale), Pigweed ([13]; 500 g ai/ha): 30; Plant response rating (0 to 100 scale), Ryegrass, It. ([14]; 125 g ai/ha): 30; Plant response rating (0 to 100 scale), Ryegrass, It. ([14]; 500 g ai/ha): 70; Plant response rating (0 to 100 scale), Ragweed ([15]; 500 g ai/ha): 30 |
| Cc1cnc2sc(C)c(-c3c(O)c(C)nn(C)c3=O)c2c1 [Compound 3] | 20 | 40 | 30 | 80 | 0 | 0 | 0 | 30 | 30 | 90 | 0 | 20 | 0 | 30 | 80 | 90 | 20 | 80 | 20 | 50 | Plant response rating (0 to 100 scale), Barnyardgrass ([10]; 125 g ai/ha): 0; Plant response rating (0 to 100 scale), Barnyardgrass ([10]; 500 g ai/ha): 10; Plant response rating (0 to 100 scale), Kochia (kochia (Kochia scoparia) [11]; 125 g ai/ha): 0; Plant response rating (0 to 100 scale), Kochia (kochia (Kochia scoparia) [11]; 500 g ai/ha): 20; Plant response rating (0 to 100 scale), Foxtail, Giant ([12]; 125 g ai/ha): 0; Plant response rating (0 to 100 scale), Foxtail, Giant ([12]; 500 g ai/ha): 10; Plant response rating (0 to 100 scale), Pigweed ([13]; 125 g ai/ha): 40; Plant response rating (0 to 100 scale), Pigweed ([13]; 500 g ai/ha): 80; Plant response rating (0 to 100 scale), Ryegrass, It. ([14]; 125 g ai/ha): 30; Plant response rating (0 to 100 scale), Ryegrass, It. ([14]; 500 g ai/ha): 70; Plant response rating (0 to 100 scale), Ragweed ([15]; 125 g ai/ha): 0; Plant response rating (0 to 100 scale), Ragweed ([15]; 500 g ai/ha): 40 |
| Cc1cnc2sc(C)c(-c3c(OC(=O)OC(C)C)c(C)nn(C)c3=O)c2c1 [Compound 6] | 0 | 20 | 50 | 70 | 0 | 0 | 0 | 10 | 30 | 60 | 0 | 0 | 20 | 40 | 20 | 80 | 20 | 60 | 10 | 30 | Plant response rating (0 to 100 scale), Barnyardgrass ([10]; 125 g ai/ha): 0; Plant response rating (0 to 100 scale), Barnyardgrass ([10]; 500 g ai/ha): 0; Plant response rating (0 to 100 scale), Kochia (kochia (Kochia scoparia) [11]; 125 g ai/ha): 0; Plant response rating (0 to 100 scale), Kochia (kochia (Kochia scoparia) [11]; 500 g ai/ha): 50; Plant response rating (0 to 100 scale), Foxtail, Giant ([12]; 125 g ai/ha): 20; Plant response rating (0 to 100 scale), Foxtail, Giant ([12]; 500 g ai/ha): 0; Plant response rating (0 to 100 scale), Pigweed ([13]; 125 g ai/ha): 0; Plant response rating (0 to 100 scale), Pigweed ([13]; 500 g ai/ha): 70; Plant response rating (0 to 100 scale), Ryegrass, It. ([14]; 125 g ai/ha): 0; Plant response rating (0 to 100 scale), Ryegrass, It. ([14]; 500 g ai/ha): 50; Plant response rating (0 to 100 scale), Ragweed ([15]; 125 g ai/ha): 0 |
